Converted amounts (≈) assume the structure as drawn. Where two headings read alike, the source gives them in different places. Where a SMILES comes first, the peptide text is derived from it.

The test system of data set [1] is sheep red blood cells (sRBCs). Nature of the data set: Hemolytic activity. In kind it is cell-based. The note with it: 5% sRBC, 30 minutes, room temperature. As to the method:
Specifically, hemolytic activity was analyzed using sheep red blood cells (sRBCs). In addition, as comparative groups, Ib-AMP4 and melittin were used. Defibrinated sheep blood (MB cells) was centrifuged (4,000×g, 10 min, 4° C.), washed with PBS three times, and suspended in PBS, thereby preparing an sRBC solution (10% sRBC). 5% sRBC and each peptide were mixed to have a final concentration of 1.25 to 160 μg/mL, allowed to react at room temperature for 30 minutes, and centrifuged to collect a supernatant. The absorbance (A414) of hemoglobin eluted from the red blood cells in the collected supernatant was measured at 414 nm. 0.1% Triton X−100 was used as a positive control, PBS was used as a negative control, and hemolytic activity (% Hemolysis) was calculated based on the following equation: % Hemolysis=[(A414 in peptide solution−A414 in PBS)/(A414 in 0.1% Triton X−100−A414 in PBS)]×100.

Data set [2] concerns L929 cells (murine fibroblast cell line). As to the kind of experiment: Cytotoxicity, WST-1 cell viability. In kind it is cell-based. The note with it: L929 cells, peptide 5.0 μg/mL, 24 hours. As to the method:
(§1) Specifically, cytotoxicity was evaluated using a skin cell line, L929 cells (murine fibroblast cell line). In addition, as comparative groups, Ib-AMP4 and the bee venom-derived AMP, melittin, known to be highly cytotoxic, were used. The L929 cells were cultured in RPMI 1640 medium (Gibco), which was supplemented with 10% FBS (Sigma), antibiotic-antimycotic cocktail, penicillin G (100 IU/mL), streptomycin (100 μg/mL), and amphotericin B (250 ng/ml; Gibco), at 37° C. in 5% CO2. The cells were seeded in a 96-well plate at 1×10^4 cell/well, incubated for 18 hours, treated with each peptide at 1.25 to 160 µg/mL, and then incubated for 24 hours. 10 μL of WST-1 reagent was added to 100 μL of the medium and allowed to react at 37° C. for 30 minutes, and then absorbance (A450) was measured at 450 nm using a microplate reader. Instead of the peptides, 0.1% Triton X-100 and PBS were used as positive and negative controls, respectively, and cell viability was calculated based on the following equation: % Cell viability=[(A450 in peptide solution−A450 in PBS)/(A450 in 0.1% Triton X−100-A450 in PBS)]×100. The analysis results were expressed as mean±S.D of three repeated experiments.
For orientation: Tetrazolium assays rely on reduction of a dye to a coloured formazan, in cell work by metabolically active cells.

Data set [3] can be described thus: Cytotoxicity, WST-1 cell viability. In kind it is cell-based, murine. The note with it: mouse, L929 cells (murine fibroblast cell line), L929 cells, 24 hours, read-out: Relative cell viability (%). The protocol:
as §1

The test system of data set [4] is Cutibacterium acnes KCTC 3314. It counts as cell-based. The protocol:
(§2) To examine the antimicrobial and antifungal activity of the six types of peptide derivatives prepared in Example 1, antimicrobial and antifungal activity was analyzed using three types of bacterial strains and two types of fungal strains.
(§3) Specifically, to analyze antimicrobial and antifungal activity, a minimal inhibitory concentration (MIC) was measured. The three types of bacterial strains included Escherichia coli KCCM 41290, Staphylococcus aureus KCTC 1621, and Cutibacterium acnes KCTC 3314, and the two types of fungal strains included Candida albicans KCTC 17712, and Aspergillus niger KCTC 6317. The culture of Escherichia coli and Staphylococcus aureus was performed in Luria-Bertani (LB) medium (BD Difco), and the culture of Cutibacterium acnes was performed in reinforced clostridial medium (RCM, BD Difco). The culture of Candida albicans and Aspergillus niger was performed in potato dextrose (PD) medium (BD Difco). The pre-cultured microorganisms or spores were diluted in a medium to 5×10^3 CFU/mL, and each of the six types of peptide derivatives prepared in Example 1 was added at a predetermined concentration. Afterward, a bacterial strain was cultured at 37° C., a fungal strain was cultured at 25° C. for 18 to 24 hours, and optical densities (OD600) were measured using a microplate reader. Fluorescence values (Ex560 and Em600), instead of optical densities, were measured after adding a resazurin reagent to the Aspergillus niger medium to have a concentration of 100 μM. As a control, Ib-AMP4 was used, and the analysis results were expressed as the average of three repeated experiments.

Data set [5] has as its system Staphylococcus aureus KCTC 1621. It counts as cell-based. The protocol:
as §2, §3

Data set [6] relates to Aspergillus niger KCTC 6317. In kind it is cell-based. The protocol:
as §2, §3

Data set [7] has as its system Candida albicans KCTC 17712. It counts as cell-based. As to the method: as §2, §3
The subject of data set [8] is Escherichia coli KCCM 41290. It counts as cell-based. The protocol: as §2, §3
[9] abbreviates: Cutibacterium acnes, RCM, 37° C., 18 to 24 hours, OD600.
The mark [10] stands for this setting: Staphylococcus aureus, LB medium, 37° C., 18 to 24 hours, OD600.
The mark [11] stands for this setting: Aspergillus niger, PD medium, 25° C., 18 to 24 hours, resazurin fluorescence.
The mark [12] stands for this setting: Candida albicans, PD medium, 25° C., 18 to 24 hours, OD600.
Where [13] appears, read: Escherichia coli, LB medium, 37° C., 18 to 24 hours, OD600.

Usually viability stands for a per cent measure of how many cells are alive, often set against a control. For `CC[C@H](C)[C@H](NC(=O)CN)C(=O)NCC(=O)N[C@@H](C)C(=O)N[C@H](C(=O)N[C@@H](CC(C)C)C(=O)N[C@@H](CCCCN)C(=O)N[C@H](C(=O)N[C@@H](CC(C)C)C(=O)N[C@H](C(=O)N[C@H](C(=O)NCC(=O)N[C@@H](CC(C)C)C(=O)N1CCC[C@H]1C(=O)N[C@@H](C)C(=O)N[C@@H](CC(C)C)C(=O)N[C@H](C(=O)N[C@@H](CO)C(=O)N[C@@H](Cc1c[nH]c2ccccc12)C(=O)N[C@H](C(=O)N[C@@H](CCCCN)C(=O)N[C@@H](CCCNC(=N)N)C(=O)N[C@@H](CCCCN)C(=O)N[C@@H](CCCNC(=N)N)C(=O)N[C@@H](CCC(N)=O)C(=O)N[C@@H](CCC(N)=O)C(N)=O)[C@@H](C)CC)[C@@H](C)CC)[C@@H](C)O)[C@@H](C)O)C(C)C)C(C)C` [Melittin], the “Hemolytic Activity (%)” value was determined as 0.98% in data set [1] (peptide 1.25 μg/mL); 3.40% in data set [1] (peptide 2.5 μg/mL); 14.0% in data set [1] (peptide 5.0 μg/mL); 25.02% in data set [1] (peptide 10 μg/mL); 96.10% in data set [1] (peptide 20 μg/mL); 99.36% in data set [1] (peptide 40 μg/mL). Further, the “Relative cell viability (%)” value in data set [2] turned out to be 2.1%. For the same compound, the viability at 24 h, 1.25 µg/mL in data set [3] (peptide 1.25 μg/mL) was 97.4%. In addition, the viability at 24 h, 2.5 µg/mL in data set [3] (peptide 2.5 μg/mL) is 51.1%. The viability at 24 h, 5 µg/mL in data set [3] (peptide 5.0 μg/mL) stood at 2.1%. Moreover, the viability at 24 h, 10 µg/mL in data set [3] (peptide 10 μg/mL) worked out at 0.2%. Moreover, the viability at 24 h, 20 µg/mL in data set [3] (peptide 20 μg/mL) amounted to 0.8%. In addition, in data set [3] (peptide 40 μg/mL), the viability at 24 h, 40 µg/mL turned out to be 0.3%. Besides, the viability at 24 h, 80 µg/mL in data set [3] (peptide 80 μg/mL) turned out to be 0.5%. In data set [3] (peptide 160 μg/mL), the viability at 24 h, 160 µg/mL came to 0.6%.

Broadly, the MIC is the least concentration at which growth counts as inhibited. A lower MIC goes with inhibition by little substance. With `N=C(N)NCCC[C@H](NC(=O)[C@H](CCCNC(=N)N)NC(=O)[C@H](CS)NC(=O)[C@H](Cc1ccc(O)cc1)NC(=O)[C@H](CCCNC(=N)N)NC(=O)[C@H](CCCNC(=N)N)NC(=O)CNC(=O)[C@@H]1CCCN1C(=O)CN)C(N)=O` [VESCA1] (H-GPGRRYCRR-NH2; N-terminus assumed), the MIC was above 100 µg/mL in data set [4] (setting [9]); above 100 µg/mL in data set [5] (setting [10]); 60 µg/mL (≈ 53.6 µM) in data set [6] (setting [11]); 40 µg/mL (≈ 35.7 µM) in data set [7] (setting [12]); above 100 µg/mL in data set [8] (setting [13]).

With `C[C@H](NC(=O)[C@H](Cc1ccc(O)cc1)NC(=O)[C@H](CCCNC(=N)N)NC(=O)[C@H](CCCNC(=N)N)NC(=O)CNC(=O)[C@@H]1CCCN1C(=O)CN)C(=O)N[C@@H](CCCNC(=N)N)C(=O)N[C@@H](CCCNC(=N)N)C(N)=O` [VESCA2] (H-GPGRRYARR-NH2; N-terminus assumed), the MIC in data set [4] (setting [9]) is above 100 µg/mL; in data set [5] (setting [10]), above 100 µg/mL; in data set [6] (setting [11]), 80 µg/mL (≈ 73.6 µM); in data set [7] (setting [12]), 60 µg/mL (≈ 55.2 µM); in data set [8] (setting [13]) it was above 100 µg/mL.

As to `N=C(N)NCCC[C@H](NC(=O)CNC(=O)[C@H](Cc1c[nH]c2ccccc12)NC(=O)[C@H](CCC(=O)O)NC(=O)[C@@H](N)CC(=O)O)C(=O)N[C@@H](CCCNC(=N)N)C(=O)N[C@@H](CS)C(=O)N[C@@H](CS)C(=O)NCC(N)=O` [VESCA-NH2] (H-DEWGRRCCG-NH2; N-terminus assumed), the MIC in data set [4] (KCTC 3314), in data set [5] (KCTC 1621), in data set [6] (KCTC 6317), in data set [7] (KCTC 17712) and in data set [8] (KCCM 41290) was above 100 µg/mL in each case.

On to `N=C(N)NCCC[C@H](NC(=O)[C@H](CCCNC(=N)N)NC(=O)[C@H](CCCCN)NC(=O)[C@H](Cc1c[nH]c2ccccc12)NC(=O)[C@H](CCC(=O)O)NC(=O)[C@@H](N)Cc1ccc(O)cc1)C(=O)N[C@@H](CS)C(=O)N[C@@H](CS)C(=O)N[C@@H](CCCCN)C(N)=O` [VESCA-NH4] (H-YEWKRRCCK-NH2; N-terminus assumed), for which the MIC is above 100 µg/mL in data set [4] (KCTC 3314); above 100 µg/mL in data set [5] (KCTC 1621); above 100 µg/mL in data set [6] (KCTC 6317); 100 µg/mL (≈ 78.7 µM) in data set [7] (KCTC 17712); above 100 µg/mL in data set [8] (KCCM 41290).

As to `CC[C@H](C)[C@H](NC(=O)[C@H](Cc1ccccc1)NC(=O)[C@H](CCCCN)NC(=O)[C@H](CCSC)NC(=O)[C@H](CCCCN)NC(=O)[C@H](CCCNC(=N)N)NC(=O)[C@H](CCCNC(=N)N)NC(=O)[C@@H](NC(=O)[C@H](Cc1c[nH]c2ccccc12)NC(=O)[C@@H](N)CCC(=O)O)C(C)C)C(=O)N[C@@H](CC(N)=O)C(=O)N[C@@H](CO)C(=O)N[C@@H](CC(C)C)C(=O)N[C@@H](Cc1ccc(O)cc1)C(=O)N[C@@H](CO)C(=O)N[C@@H](Cc1c[nH]c2ccccc12)C(N)=O` [VESCA-OH3] (H-EWVRRKMKFINSLYSW-NH2; N-terminus assumed), the MIC in data set [4] (KCTC 3314) is above 100 µg/mL; in data set [5] (KCTC 1621), 5 µg/mL (≈ 2.33 µM); in data set [6] (KCTC 6317) it was 80 µg/mL (≈ 37.3 µM); in data set [7] (KCTC 17712) it was 100 µg/mL (≈ 46.7 µM); in data set [8] (setting [13]) it was 40 µg/mL (≈ 18.7 µM). The compound also had an antimicrobial activity (MIC) in data set [5] (Staphylococcus aureus, text of b72) of 5 µg/mL.
